Experimental data as given in PMC12756790, “Site-Selective Protein Modification via Peptide-Directed Proximity Catalysis” (ACS Omega, 2025).

How the values were obtained:
insulin [1] = target: T1, insulin (Homo sapiens, UniProt P01308); assay: peptide-directed proximity catalysis labeling of insulin, intact protein LC-MS; format: biochemical; conditions: control (scrambled peptide, peptide lacking PyOx, or PyOx-azide) with biotin-NASA 3b, pH 7.4, 2 h, 22 °C
Procedure: With these reagents in hand, we attempted peptide-directed proximity catalysis on insulin. Initial experiments were performed in pH 7.4 phosphate buffer at a concentration of 50 μM, which was above the K d calculated for peptide binding (Figure ). Varying equivalents of pyridinium oxime peptide P1-(PyOx) 1 (0, 1.25, 2.5, 5, or 10 equiv wrt protein) were then added, followed by the addition of biotin–NASA 3b (20 equiv wrt protein). […] After 2 h at room temperature (22 °C), reactions were analyzed by intact protein liquid chromatography mass spectrometry (LC-MS). […] Further controls using either a scrambled peptide (FYRTGF-(PyOx)1), peptide lacking the pyridinium oxime P1, or pyridinium oxime-azide 2 also gave no labeling, providing further evidence that labeling was mediated by a specific protein–peptide binding interaction, and catalyzed by the pyridinium oxime motif.
General protocol: A solution of PyOx-peptide probe ([…] in pH 7.4 PBS, 25 µL, 7.4 PBS, 25 µL, 1.25 nmol; Final concentration 25 µM ) and shaken for 30 min . A solution of biotin-NASA 3b (25 mM in DMSO, 1 µL, 25 nmol; Final concentration 490 µM) was then added and the mixture shaken at room temperature for 2 h. Samples were then analysed by LC-MS without purification.
Figure S5: Deconvoluted mass spectra from general labelling protocol showing modified and unmodified insulin. […]

insulin [2] = target: T1, insulin; assay: QCM-D binding of gold-tethered peptides to insulin; conditions: predicted from QCM-D of model peptides, 'noting the assumptions detailed above'
From the text: To predict whether the insulin-binding capability of P1 would be maintained after the introduction of a pyridinium oxime catalyst, peptides bearing either an N- or C-terminal cysteine (C-P1 and P1-C, respectively) were first synthesized and tethered to a gold sensor for quartz crystal microbalance with dissipation monitoring (QCM-D) analysis. It is important to note that these model peptides lacked the positive charge that would be introduced upon installation of a pyridinium oxime, and so evidence of binding was expected to be indicative of binding potential, rather than providing an exact measure of binding affinity.
Sensor preparation: QCM-D gold sensors (QSX 301, Biolin Scientific) were cleaned by UV–ozone treatment (30 min), followed by sonication in a 2% Hellmanex III solution (5 min) and then sonication in ultrapure water (5 min). Sensors were then dried with N2 […]
Binding studies: Following cleaning, each sensor was installed into the flow modules of a Q-Sense E4, QFM 401 system by Biolin Scientific. Each chamber was then filled with Milli-Q water at a flow rate of 100 μL/min controlled by a four-channel peristaltic pump. To achieve a stable baseline, PBS was left to flow through the modules at 100 μL/min until the drift in frequency was <±1 Hz over 10 min. […]

RNase S = test system: RNase S; parameters: method as in Kim and Raines, Protein Sci. 1993 (ref 26); conditions: S-peptide cleaved from N-terminal domain of RNase A; ref Kim and Raines, Protein Sci. 1993 (ref 26); cited from earlier work

T1 sequence (P01308 25-54 limits assumed): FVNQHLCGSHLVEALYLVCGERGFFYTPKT
T1 sequence (P01308 90-110 limits assumed): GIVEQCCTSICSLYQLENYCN

insulin labeling, controls (insulin [1])	predicted affinity for target protein (insulin [2])	Substance	binding affinity to remaining parent protein RNase S (RNase S)
no labeling	μM affinity	RGFFYT [P1]	–
no labeling	–	FYRTGF-(PyOx)1 [scrambled peptide control]	–
–	–	KETAAAKFERQHMDSSTSA [P2]	nM binding affinty
